Columns and labels:
Thermolysin [1] = target: T1, Thermolysin (Bacillus thermoproteolyticus, UniProt P00800); assay: Inhibitory activity against thermolysin using N-[3-(2-furyl)acryloyl]-Gly-l-leucineamide (FA-Gly-l-Leu-NH2) as substrate
T1 sequence (P00800 whole entry): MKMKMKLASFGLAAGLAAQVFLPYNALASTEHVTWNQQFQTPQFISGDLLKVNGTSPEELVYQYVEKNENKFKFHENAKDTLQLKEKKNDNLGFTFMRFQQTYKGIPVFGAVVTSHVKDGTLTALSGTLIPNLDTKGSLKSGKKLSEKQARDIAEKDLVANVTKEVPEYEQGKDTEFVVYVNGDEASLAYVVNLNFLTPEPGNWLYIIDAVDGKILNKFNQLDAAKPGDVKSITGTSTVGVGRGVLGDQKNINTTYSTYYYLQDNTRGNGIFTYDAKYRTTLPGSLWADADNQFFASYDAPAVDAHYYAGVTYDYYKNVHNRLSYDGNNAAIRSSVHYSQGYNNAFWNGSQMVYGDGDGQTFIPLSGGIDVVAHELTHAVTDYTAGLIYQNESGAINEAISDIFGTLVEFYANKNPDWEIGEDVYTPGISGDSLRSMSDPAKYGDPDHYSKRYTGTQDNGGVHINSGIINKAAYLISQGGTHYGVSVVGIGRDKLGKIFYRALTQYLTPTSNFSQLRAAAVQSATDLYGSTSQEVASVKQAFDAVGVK

[2] = Ratio of Km to that of Kcat against thermolysin
Thermolysin [3] = target: T1, Thermolysin; assay: Inhibitory activity against thermolysin

SMILES	Ki (Thermolysin [1])	Km/Kcat [2]	Ki (Thermolysin [3])
CC(C)C[C@H](CN(O)C=O)C(N)=O	52.8 µM	196 µM/s	20.6 µM
CC(C)C[C@H](CN(O)C=O)C(=O)NC(=O)[C@@H](N)Cc1ccccc1	1.84 µM	20 µM/s	2.4 µM
CC(C)C[C@H](CN(O)C=O)C(=O)NC(=O)CN	14.7 µM	165 µM/s	10.9 µM

The remaining lines, values ahead:

Ki (Thermolysin [1])	Km/Kcat [2]	Ki (Thermolysin [3])	SMILES
2.49 µM	13.6 µM/s	10.6 µM	CC(C)C[C@H](CN(O)C=O)C(=O)NC(=O)[C@H](C)N
383 µM	3200 µM/s	16.6 µM	CC(C)C[C@H](CN(O)C=O)C(=O)NC(=O)[C@@H](C)N

From ChEMBL document CHEMBL1136223, “Reversed hydroxamate-bearing thermolysin inhibitors mimic a high-energy intermediate along the enzyme-catalyzed proteolytic reaction pathway” (Bioorg Med Chem Lett, 2003)
